Measured values taken from patent US20260224716A1, “PTH ANALOGS FOR THE TREATMENT OF HYPOPARATHYROIDISM” (priority 2020, published 2026).
Where a SMILES comes first, the peptide text is derived from it. [ ]: non-standard residue; d: D form. The star is where a group is joined. NMeH = CN[C@@H](Cc1c[nH]cn1)C(=O)O; Isobutyryl(2-OH) = CC(C)(O)C(=O)*; Deg = CCC(N)(CC)C(=O)O; Aib = CC(C)(N)C(=O)O

Test system: not listed separately
Experiment: Rate of model dipeptide cleavage from hexapeptide in PBS (HPLC, LC-MS)
Format: physicochemical
Conditions: buffer
Method: The solution was incubated at 37° C.
The flow rate was 1 ml/min.
C[C@@H](O)[C@H](NC(=O)CNC(=O)[C@H](CCCNC(=N)N)NC(=O)[C@H](CO)NC(=O)[C@H](Cc1c[nH]cn1)N(C)C(=O)[C@@H]1CCCN1C(=O)C(C)(C)N)C(=O)N[C@@H](Cc1ccccc1)C(N)=O [compound 23] (H-[Aib]P[NMeH]SRGTF-NH2) showed a half-life at 1 mg/ml of 1800 min. Compound C[C@@H](O)[C@H](NC(=O)CNC(=O)[C@H](CCCNC(=N)N)NC(=O)[C@H](CO)NC(=O)[C@H](Cc1c[nH]cn1)NC(=O)[C@@H]1CCCN1C(=O)C(C)(C)O)C(=O)N[C@@H](Cc1ccccc1)C(N)=O [compound 21] ({Isobutyryl(2-OH)}-PHSRGTF-NH2) has a half-life at 1 mg/ml of 3660 min. CCC(N)(CC)C(=O)N1CCC[C@H]1C(=O)N[C@@H](Cc1c[nH]cn1)C(=O)N[C@@H](CO)C(=O)N[C@@H](CCCNC(=N)N)C(=O)NCC(=O)N[C@H](C(=O)N[C@@H](Cc1ccccc1)C(N)=O)[C@@H](C)O [compound 20] (H-[Deg]PHSRGTF-NH2) gave a half-life at 1 mg/ml of 2760 min. Work on C[C@@H](O)[C@H](NC(=O)CNC(=O)[C@H](CCCNC(=N)N)NC(=O)[C@H](CO)NC(=O)[C@H](Cc1c[nH]cn1)NC(=O)[C@@H]1CCCN1C(=O)C(C)(C)N)C(=O)N[C@@H](Cc1ccccc1)C(N)=O [compound 14] (H-[Aib]PHSRGTF-NH2) yielded a half-life at 1 mg/ml of 1920 min. For C[C@H](NC(=O)[C@@H]1CCCN1C(=O)C(C)(C)N)C(=O)N[C@@H](CO)C(=O)N[C@@H](CCCNC(=N)N)C(=O)NCC(=O)N[C@H](C(=O)N[C@@H](Cc1ccccc1)C(N)=O)[C@@H](C)O [compound 22] (H-[Aib]PASRGTF-NH2), the half-life at 1 mg/ml was 3480 min.

Same assay, conditions: cleavage of dipeptide A-B from model hexapeptide in PBS, 37° C.; unit not given or result in words
With “13 (XXSVSEIQLMHNLGKHLNSMERVEWLRKKLQDVHNFX; SITE 1 MISC_FEATURE - Xaa at position 1 is acylated dLys; SITE 2 MISC_FEATURE - Xaa at position 2 is N-methyl Gly; SITE 37 MISC_FEATURE - Xaa at position 37 is an acylated Lys; SITE 37 MISC_FEATURE - C-terminal carboxyl group replaced with an amide; listed as Homo sapiens) [compound 13]” the t1/2 was “No cleavage”. In the case of “7 (SVSEIQLMHNLGKHLNSMERVEWLRKKLQDVH; listed as Homo sapiens) [compound 7]”, the t1/2 is reported as “No cleavage”. With “11 (XXSVSEIQLMHNLGKHLNSMERVEWLRKKLQDVHNF; SITE 1 MISC_FEATURE - Xaa at position 1 is acylated dLys; SITE 2 MISC_FEATURE - Xaa at position 2 is N-methyl Gly; listed as Homo sapiens) [compound 11]” the t1/2 was “No cleavage”.

Test system: serum calcium
Experiment: Pharmacology in normal mice: serum calcium (Example 6)
Format: in vivo, C57Bl6/J mice
Conditions: FIG. 5C, 20 or 40 nmol/kg SC, 24 and 48 hours
Method: Each group of mice was bled immediately before the injection and after 24 and 48 hours. Blood was centrifuges and serum was collected and stored at −20 C. Calcium concentrations were determined used commercially available assays following the manufacturer's instructions.
With “SVSEIQLMHNLGKHLNSMERVEWLRKKLQDVHK(γE-COC16H32CO2H)-OH [SEQ ID NO: 74]” the “effect on serum calcium levels” value was “increase serum calcium levels”.
